# Molecular target: T1, Recombinant human GR (Homo sapiens, UniProt P04150)
# T1 construct: purchased Invitrogen P2816
# T1 sequence (P04150 1-777): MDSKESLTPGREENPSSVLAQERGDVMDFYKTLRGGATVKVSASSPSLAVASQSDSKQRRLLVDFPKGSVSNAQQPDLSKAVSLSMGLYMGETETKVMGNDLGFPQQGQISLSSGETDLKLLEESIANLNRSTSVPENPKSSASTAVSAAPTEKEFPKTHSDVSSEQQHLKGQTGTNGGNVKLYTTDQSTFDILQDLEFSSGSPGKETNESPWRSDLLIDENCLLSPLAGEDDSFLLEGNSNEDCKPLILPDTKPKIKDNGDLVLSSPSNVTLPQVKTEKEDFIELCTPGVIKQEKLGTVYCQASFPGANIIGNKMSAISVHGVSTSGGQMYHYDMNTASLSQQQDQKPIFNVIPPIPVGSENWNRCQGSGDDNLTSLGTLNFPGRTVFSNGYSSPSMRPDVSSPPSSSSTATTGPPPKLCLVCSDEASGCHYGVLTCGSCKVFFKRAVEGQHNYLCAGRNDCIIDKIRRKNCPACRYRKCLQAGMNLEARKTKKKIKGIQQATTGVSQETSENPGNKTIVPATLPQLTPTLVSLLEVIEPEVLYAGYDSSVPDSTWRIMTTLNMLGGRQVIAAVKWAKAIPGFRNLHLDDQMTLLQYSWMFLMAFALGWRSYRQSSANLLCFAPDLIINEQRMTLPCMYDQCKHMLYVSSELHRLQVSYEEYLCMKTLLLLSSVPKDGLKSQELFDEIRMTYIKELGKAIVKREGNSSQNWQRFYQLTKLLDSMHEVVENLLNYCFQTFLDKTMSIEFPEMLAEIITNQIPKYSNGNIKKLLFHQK
# Assay: GR competitor assay by fluorescence polarization (binding activity to glucocorticoid receptor)
# Details: 20 μM test compound solution, 25 μL per well plus 12.5 μL each of 4×GS1 and 4×GR solution; Fluormone GS1 ligand; positive control 2 mM dexamethasone; read-out: GR Binding ratio (%)
# Method: 1. Evaluation Test for Binding Activity to Glucocorticoid Receptor (Hereinafter Referred to as “GR”)
# In order to evaluate a binding activity to GR, a receptor competitor assay was carried out by a fluorescence polarization method. In the assay, a GR competitor assay kit (manufactured by Invitrogen, cat No. P2816) was used, and a procedure was carried out according to the protocol attached to the kit. Hereinafter, the specific method will be described.
# GR screening buffer: A buffer containing 10 mM potassium phosphate (pH 7.4), 20 mM sodium molybdate (Na2MoO4), 0.1 mM ethylene diamine tetraacetic acid (EDTA), 5 mM dithiothreitol (DTT), 0.1 mM stabilizing peptide and 2% dimethylsulfoxide was prepared.
# 4×GS1 solution: Fluormone™ GS1, which is a fluorescent glucocorticoid ligand, was diluted with GR screening buffer, whereby a 4 nM solution was prepared.
# 4×GR solution: Recombinant human GR was diluted with GR screening buffer, whereby a 16 nM solution was prepared.
# After a test compound was dissolved in dimethylsulfoxide, the resulting solution was diluted with GR screening buffer, whereby a 20 μM test compound solution was prepared.
# 1) The test compound solution was added in an amount of 25 μL into each well of a 96-well plate, and then, 4×GS1 solution and 4×GR solution were added in an amount of 12.5 μL into each well, respectively.
# 2) The plate was incubated in a dark place at room temperature for 2 to 4 hours.
# 3) By using a multimode plate reader, Analyst™ HT (manufactured by LJL Biosystems), fluorescence polarization of each well was measured. As the blank, a well containing GR screening buffer in place of the test compound and 4×GS1 solution was used.
# 4) The same procedure as that in the above 1) to 3) was carried out except that GR screening buffer was used in place of the test compound solution, and the obtained result was taken as the negative control.
# 5) The same procedure as that in the above 1) to 3) was carried out except that 2 mM dexamethasone was used in place of the test compound solution, and the obtained result was taken as the positive control.
# A GR binding ratio (%) was calculated from the following equation.
# GR binding ratio (%)=100×[1-(fluorescence polarization of test compound solution-fluorescence polarization of positive control solution)/(fluorescence polarization of negative control solution—fluorescence polarization of positive control solution)]
row,inhibition at 10 µM [%],Compound
1,86,"COc1cc(N(C)C(C)=O)ccc1-c1ccc2c(c1COc1cc(F)ccc1C)N(C)C(=O)C(C)(C)N2 [Compound 16-3, 7-[4-(N-Acetyl-N-methylamino)-2-methoxyphenyl]-8-(5-fluoro-2-methylphenoxymethyl)-1,3,3-trimethyl-3,4-dihydro-1H-quinoxalin-2-one]"
2,100,"COc1cc(OC(=O)N2CCOCC2)ccc1-c1ccc2c(c1COc1cc(F)ccc1C)N(C)C(=O)C(C)(C)N2 [Compound 18-1, 8-(5-Fluoro-2-methylphenoxymethyl)-7-[2-methoxy-4-(morpholin-4-ylcarbonyloxy)phenyl]-1,3,3-trimethyl-3,4-dihydro-1H-quinoxalin-2-one]"
3,100,"COc1ccccc1NCc1c(-c2ccc(O)cc2OC)ccc2c1N(C)C(=O)C(C)(C)N2 [Compound 21-3, 7-(4-Hydroxy-2-methoxyphenyl)-8-(2-methoxyphenylaminomethyl)-1,3,3-trimethyl-3,4-dihydro-1H-quinoxalin-2-one]"
4,98,"CCCC(=O)Oc1ccc(-c2ccc3c(c2CNc2ccccc2OC)N(C)C(=O)C(C)(C)N3)c(OC)c1 [Compound 21-5, 7-(4-Butyryloxy-2-methoxyphenyl)-8-(2-methoxyphenylaminomethyl)-1,3,3-trimethyl-3,4-dihydro-1H-quinoxalin-2-one]"
5,100,"COc1ccccc1NCc1c(-c2ccc(OC(=O)c3cccnc3C)cc2OC)ccc2c1N(C)C(=O)C(C)(C)N2 [Compound 21-12, 7-[2-Methoxy-4-(2-methylpyridin-3-ylcarbonyloxy)phenyl]-8-(2-methoxyphenylaminomethyl)-1,3,3-trimethyl-3,4-dihydro-1H-quinoxalin-2-one]"
6,94,"COc1ccccc1NCc1c(-c2ccc(OC(=O)c3cscn3)cc2OC)ccc2c1N(C)C(=O)C(C)(C)N2 [Compound 21-13, 8-(2-Methoxyphenylaminomethyl)-7-[2-methoxy-4-(thiazol-4-ylcarbonyloxy)phenyl]-1,3,3-trimethyl-3,4-dihydro-1H-quinoxalin-2-one]"
7,100,"COc1cc(OC(=O)c2ccccc2C)ccc1-c1ccc2c(c1CNc1cc(F)ccc1C)N(C)C(=O)C(C)(C)N2 [Compound 21-22, 8-(5-Fluoro-2-methylphenylaminomethyl)-7-[2-methoxy-4-(2-methylbenzoyloxy)phenyl]-1,3,3-trimethyl-3,4-dihydro-1H-quinoxalin-2-one]"

# Second part, the compound before the results:
row,Compound,inhibition at 10 µM [%]
1,COC(=O)Oc1ccc(-c2ccc3c(c2COc2cc(F)ccc2C)N(C)C(=O)C(C)(C)N3)c(OC)c1 [Compound 14-35],93
2,COc1cc(OC(=O)Oc2ccccc2)ccc1-c1ccc2c(c1COc1cc(F)ccc1C)N(C)C(=O)C(C)(C)N2 [Compound 14-36],88
3,COc1cc(NC(=O)Oc2ccccc2)ccc1-c1ccc2c(c1COc1cc(F)ccc1C)N(C)C(=O)C(C)(C)N2 [Compound 14-37],93
4,COc1cc(OC(=O)c2ccccc2F)ccc1-c1ccc2c(c1COC(=O)c1ccc(C)s1)N(C)C(=O)C(C)(C)N2 [Compound 14-44],100
5,"COC(=O)c1cccc(C(=O)Oc2ccc(-c3ccc4c(c3COc3cc(F)ccc3C)N(C)C(=O)C(C)(C)N4)c(OC)c2)c1 [Compound 15-1, 8-(5-Fluoro-2-methylphenoxymethyl)-7-[2-methoxy-4-(3-methoxycarbonylbenzoyloxy)phenyl]-1,3,3-trimethyl-3,4-dihydro-1H-quinoxalin-2-one]",100
6,COc1cc(OC(=O)c2cccnc2C)ccc1-c1ccc2c(c1COc1cc(F)ccc1C)N(C)C(=O)C(C)(C)N2 [Compound 15-2],100
7,COc1cc(OC(=O)c2ccccc2OC(C)=O)ccc1-c1ccc2c(c1COc1cc(F)ccc1C)N(C)C(=O)C(C)(C)N2 [Compound 15-4],98
8,COc1cc(OC(=O)c2ccccc2SC)ccc1-c1ccc2c(c1COc1cc(F)ccc1C)N(C)C(=O)C(C)(C)N2 [Compound 15-6],100
9,COc1cc(OC(=O)c2ccc(C)nc2)ccc1-c1ccc2c(c1COc1cc(F)ccc1C)N(C)C(=O)C(C)(C)N2 [Compound 15-9],100
10,COc1cc(OC(=O)c2cocn2)ccc1-c1ccc2c(c1COc1cc(F)ccc1C)N(C)C(=O)C(C)(C)N2 [Compound 15-11],100
11,COc1cc(OC(=O)c2cccc(C(C)=O)c2)ccc1-c1ccc2c(c1COc1cc(F)ccc1C)N(C)C(=O)C(C)(C)N2 [Compound 15-13],100
12,COc1cc(OC(=O)c2sccc2Cl)ccc1-c1ccc2c(c1COc1cc(F)ccc1C)N(C)C(=O)C(C)(C)N2 [Compound 15-17],95
13,COc1cc(OC(=O)c2cccnc2OC)ccc1-c1ccc2c(c1COc1cc(F)ccc1C)N(C)C(=O)C(C)(C)N2 [Compound 15-22],100
14,COc1cc(OC(=O)c2ccccc2SC)ccc1-c1ccc2c(c1COC(=O)c1ccc(C)s1)N(C)C(=O)C(C)(C)N2 [Compound 15-24],94
15,"COc1cc(OC(=O)Nc2cccnc2)ccc1-c1ccc2c(c1COc1cc(F)ccc1C)N(C)C(=O)C(C)(C)N2 [Compound 17-5, 8-(5-Fluoro-2-methylphenoxymethyl)-7-[2-methoxy-4-(pyridin-3-ylaminocarbonyloxy)phenyl]-1,3,3-trimethyl-3,4-dihydro-1H-quinoxalin-2-one]",91
16,"COc1cc(OC(=O)Nc2ccccc2)ccc1-c1ccc2c(c1COC(=O)c1ccc(C)s1)N(C)C(=O)C(C)(C)N2 [Compound 17-16, 7-(2-Methoxy-4-phenylaminocarbonyloxyphenyl)-8-(5-methylthiophen-2-ylcarbonyloxymethyl)-1,3,3-trimethyl-3,4-dihydro-1H-quinoxalin-2-one]",88
17,"COc1cc(OC(=O)N(C)C)ccc1-c1ccc2c(c1COc1cc(F)ccc1C)N(C)C(=O)C(C)(C)N2 [Compound 18-2, 7-(4-Dimethylaminocarbonyloxy-2-methoxyphenyl)-8-(5-fluoro-2-methylphenoxymethyl)-1,3,3-trimethyl-3,4-dihydro-1H-quinoxalin-2-one]",99
18,"COc1ccc([N+](=O)[O-])cc1OCc1c(-c2ccc(OC(=O)c3ccccc3C)cc2OC)ccc2c1NC(=O)C(C)(C)N2 [Compound 22, 7-[2-Methoxy-4-(2-methylbenzoyloxy)phenyl]-8-(2-methoxy-5-nitrophenoxymethyl)-3,3-dimethyl-3,4-dihydro-1H-quinoxalin-2-one]",100
